Laboratory results published in article PMC10067601, “Identification of a peptide ligand for human ALDH3A1 through peptide phage display: Prediction and characterization of protein interaction sites and inhibition of ALDH3A1 enzymatic activity” (Frontiers in Molecular Biosciences, 2023).
Entries after “also recorded” stand apart in the source; their conditions may differ.

System: human recombinant ALDH3A1 (6-His)
Assay: Phage display panning, Ph.D.-12 random 12-mer library (3 rounds, clones sequenced)
Type: binding
Conditions: for Frequency of appearance: clones out of 33 sequenced after third panning round, 75 μg ALDH3A1 coated, Ph.D.-12 library
Protocol: For phage titration, 50 μL of an overnight E. coli ER2738 (host strain) culture were used for the inoculation of 5 mL Luria Broth (LB) which was subsequently cultivated at 37°C (220 rpm). When E. coli ER2738 culture reached an OD600 value of approximately 0.5, 200 μL of the culture were mixed with 10 μL of the phage solution and the mixture was vortexed and incubated for 5 min at room temperature (RT). Subsequently, it was diluted in 3 mL of warm agarose top (0.7% agarose, 0.5% yeast extract, 1% Bacto-Tryptone, 0.5% NaCl, 0.1% MgCl2•H2O) and poured in LB/IPTG/Xgal agar plates (LB agar plates with 0.004% X-gal 0.005% IPTG). Plates were incubated overnight at 37°C.
The procedure was initiated with the amplification of the phage plaques as described in 2.5 with the exception that after the first centrifugation, 500 μL of the supernatant was transferred into a fresh tube. Then, 200 μL PEG/NaCl were added and the sample was mixed and incubated at RT for 10 min. The sample was subsequently centrifuged at 14,000 rpm, for 10 min at 4°C and the supernatant was removed. After the second round of centrifugation under the same conditions, the remaining supernatant was carefully discarded. Pellet was then re-suspended in 100 μL of iodine buffer (4M NaI, 1 mM EDTA, 10 mM Tris-HCl, pH 8.0) and 250 μL of ethanol were subsequently added. The mixture was incubated at RT for 10 min, centrifuged at 14,000 rpm for 10 min at RT, and the supernatant was discarded. Finally, 70% of pure ethanol was used for DNA wash and the pellet was suspended in 30 μL sterilized ddH2O. Samples were stored at −20°C until needed. Isolated M13 phage ssDNA (∼120 ng) was subjected to agarose gel electrophoresis, and the residual volume of the ssDNA was sent for single extension sequencing from the primer 5′-CCCTCATAGTTAGCGTAACG-3’. Sequencing was conducted by VBC biotech (Vienna, Austria). The resulting sequences were used for the estimation of the respective 12-mer peptides. […]

WPTYVSPFRSPP [P1, …, prevailing 12-mer phage display peptide, synthesised by Genecust]
Frequency of appearance: 30 out of 33
Frequency of appearance (listed as WPTYVSPFRSPP): 30 out of the 33
Strength of interaction with recombinant hALDH3A1 (inferred from frequency of appearance): strongest and most specific interaction with the recombinant hALDH3A1; also recorded: appeared to bind most efficiently to hALDH3A1
